Data as given in PubChem BioAssay (NCI).
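Growth conditions: 96-well plates. Treatment: test compound, 48 hours, 5 concentrations. Analysis: linear interpolation between bracketing concentrations; unreached endpoints set to highest concentration. GI50 = concentration required for 50% inhibition of growth. TGI is the concentration that stops growth completely.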

How the values were obtained:
Assay in all cases: DTP human tumour cell line panel, 48 h
[1] = tested on: HL-60(TB) leukemia
[2] = tested on: MOLT-4 leukemia
[3] = tested on: SK-MEL-2 melanoma
[4] = tested on: HOP-92 NSCLC
[5] = tested on: SW-620 colon
[6] = tested on: DU-145 prostate
[7] = tested on: M14 melanoma
[8] = tested on: RXF 393 renal
[9] = tested on: 786-0 renal
[10] = tested on: SF-268 CNS

Compound	TGI [1] [µM]	TGI [2] [µM]	TGI [3] [µM]	TGI [4] [µM]	TGI [5] [µM]	TGI [6] [µM]	TGI [7] [µM]	TGI [8] [µM]	TGI [9] [µM]	TGI [10] [µM]	GI50 [1] [µM]	GI50 [2] [µM]	GI50 [3] [µM]	GI50 [4] [µM]	GI50 [5] [µM]	GI50 [6] [µM]	GI50 [7] [µM]	GI50 [8] [µM]	GI50 [9] [µM]	GI50 [10] [µM]
O=[N+]([O-])c1ccc2nc(=S)[nH]n2c1	> 100	> 100	> 100	> 100	> 100	> 100	> 100	> 100	> 100	> 100										
O=C1C=C(OCC=C(Cl)Cl)C(=O)c2ccccc21		> 24		9.28	11.1	8.94	30.2	11.1	> 100	> 85.7	1.39	2.34	2.34	2.68	3.51	2.8	3.73	2.46	51.9	6.57
CC1(C)N=C(N)N=C(N)N1c1ccc(CCC(=O)Nc2cccc(S(=O)(=O)F)c2)cc1	> 100	> 100	> 100	> 100	> 100	> 100	> 100	> 100	> 100	> 100	2.86	19.8	10.8	> 100	5.87	5.81	6.69	56.8	3.89	4.74
COc1ccc2c(c1)NC(=O)CN2c1nc(C)nc2ccccc12	0.00151	> 100	> 100	> 100	> 100	> 100	> 100	> 100	> 100	> 100	0.000361	0.000605		49.5	0.000487		0.000336		0.00346	0.000788
CC(=O)Nc1cc(CN2CCCCC2)c(O)c2ncccc12	36.8	43.1	23	> 100	> 100	75.7	68.2	> 100	40.9	79.2										
O=C(N/N=C/c1cccc(O)c1)c1ccc(C(F)(F)F)nc1Nc1cccc(C(F)(F)F)c1	3.45	2.09	6.07	4.56	5.77	10.7	5.02	8.85	5.17	6.13	1.56	0.43	1.76	1.29	1.63	1.82	1.89	1.13	1.92	1.04
NC(N)=NC(N)=NCc1ccco1	> 1250	> 1250	> 1250		> 1250	> 1250	> 1250	> 1250	> 1250	> 1250	390	> 1250	> 1250	116	> 1250	> 1250	> 1250	> 1250	> 1250	> 1250
